According to PubChem BioAssay AID330 (DTP/NCI, 2004):
Several values for one entry are separate records, joined by “and”; a condition that tells them apart may be missing. Identical values can stand only once. Toxic doses and inconclusive results are not listed. Numbered stars: 1 amine (or outer) side, 2 acyl side, 3 side chain; on linkers, the order of the positions; unused ones are H or OH. Peptide text beside a SMILES is read from it. γGlu = O=C(O)[CH](CCC(=O)[*:2])N[*:1]

Test system: P388 leukemia ip, CD2F1 mice, survival T/C
Test: NCI In Vivo Anticancer Drug Screen. Data for tumor model P388 Leukemia (intraperitoneal) in CD2F1 (CDF1) mice
Conditions: endpoint: median survival time, higher = longer survival
Method in brief: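 Mice carrying the transplanted tumor received test compound or vehicle. Survival was recorded in each group, and the value is the treated-group measurement divided by that of the vehicle-treated control group.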

[1] = dose: 60.0 mg/kg/injection, schedule: Q01DX005 (ip), vehicle: saline with Tween-80
[2] = dose: 120.0 mg/kg/injection, schedule: Q01DX005 (ip), vehicle: saline with Tween-80
[3] = dose: 240.0 mg/kg/injection, schedule: Q01DX005 (ip), vehicle: saline with Tween-80
[4] = dose: 12.5 mg/kg/injection, schedule: Q01DX009 (ip), vehicle: saline with Tween-80
[5] = dose: 25.0 mg/kg/injection, schedule: Q01DX009 (ip), vehicle: saline with Tween-80
[6] = dose: 100.0 mg/kg/injection, schedule: Q01DX005 (ip), vehicle: saline with Tween-80
[7] = dose: 200.0 mg/kg/injection, schedule: Q01DX005 (ip), vehicle: saline with Tween-80
[8] = dose: 50.0 mg/kg/injection, schedule: Q01DX005 (ip), vehicle: saline
[9] = dose: 100.0 mg/kg/injection, schedule: Q01DX005 (ip), vehicle: saline
[10] = dose: 200.0 mg/kg/injection, schedule: Q01DX005 (ip), vehicle: saline
[11] = dose: 50.0 mg/kg/injection, schedule: Q01DX009 (ip), vehicle: saline with Tween-80
[12] = dose: 100.0 mg/kg/injection, schedule: Q01DX009 (ip), vehicle: saline with Tween-80
[13] = dose: 200.0 mg/kg/injection, schedule: Q01DX009 (ip), vehicle: saline with Tween-80
[14] = dose: 50.0 mg/kg/injection, schedule: Q01DX005 (ip), vehicle: Klucel (hydroxypropylcellulose) (HPC)
[15] = dose: 50.0 mg/kg/injection, schedule: Q04DX003 (ip), vehicle: saline with Tween-80
[16] = dose: 100.0 mg/kg/injection, schedule: Q04DX003 (ip), vehicle: saline with Tween-80
[17] = dose: 50.0 mg/kg/injection, schedule: Q01DX009 (ip), vehicle: saline

Structure (SMILES): CCOC(=O)c1cnc2cc(C(F)(F)F)ccc2c1N=[N+]=[N-]
- T/C [1]: 99 % of control
- T/C [2]: 96 % of control
- T/C [3]: 96 % of control

Structure (SMILES): O=C(/C=C/c1ccc(OCc2ccccc2)cc1)c1cccc(Cl)c1
- T/C (dose: 6.25 mg/kg/injection, schedule: Q01DX009 (ip), vehicle: saline with Tween-80): 95 % of control
- T/C [4]: 95 % of control
- T/C [5]: 93 % of control

Structure (SMILES): NCCN.NCCN.[Cl-].[O]=[Re]=[O]
- T/C (dose: 60.0 mg/kg/injection, schedule: Q01DX005 (ip), vehicle: saline): 100 % of control
- T/C (dose: 120.0 mg/kg/injection, schedule: Q01DX005 (ip), vehicle: saline): 102 % of control
- T/C (dose: 240.0 mg/kg/injection, schedule: Q01DX005 (ip), vehicle: saline): 100 % of control

Structure (SMILES): O=c1[nH][nH]c(=O)c2c1Nc1c(c(=O)[nH][nH]c1=O)C2c1ccncc1
- T/C (dose: 50.0 mg/kg/injection, schedule: Q01DX005 (ip), vehicle: saline with Tween-80): 103 % of control
- T/C [6]: 108 % of control
- T/C [7]: 96 % of control

Structure (SMILES): O=S(O)O
- T/C [8]: 108 % of control
- T/C [9]: 101 % of control
- T/C [10]: 109 % of control
- T/C (dose: 400.0 mg/kg/injection, schedule: Q01DX005 (ip), vehicle: saline): 116 % of control

Structure (SMILES): NC(CCC(=O)NC(CCC(=O)O)C(=O)NC(CCC(=O)O)C(=O)O)C(=O)O (stereo not drawn) (γGlu-Glu-Glu-OH; configuration not given here)
- T/C [8]: 98 % of control
- T/C [9]: 95 % of control
- T/C [10]: 102 % of control

Structure (SMILES): O=C1CCC(Cc2ccccc2)CN1 (centres undefined)
- T/C [1]: 97 % of control
- T/C [2]: 101 % of control
- T/C [3]: 97 % of control

Structure (SMILES): C#CCN1C(=O)N(CC#C)C(=O)C(CC#C)(C(CC=C)c2ccccc2)C1=O (centres undefined)
- T/C [1]: 100 % of control
- T/C [2]: 100 % of control
- T/C [3]: 96 % of control

Structure (SMILES): COC1(OC)C2C=CC1C1CC/C=C\CCC12 (centres undefined)
- T/C [11]: 106 % of control
- T/C [12]: 100 % of control
- T/C [13]: 103 % of control

Structure (SMILES): [Br][Sn]([CH2][Sn]([Br])([c]1ccccc1)[c]1ccccc1)([c]1ccccc1)[c]1ccccc1
- T/C (dose: 6.25 mg/kg/injection, schedule: Q01DX005 (ip), vehicle: Klucel (hydroxypropylcellulose) (HPC)): 110 % of control

Structure (SMILES): Cc1nc2ncn(-c3ccccc3)c2c(=O)n1Cc1ccco1
- T/C [14]: 103 % of control
- T/C (dose: 100.0 mg/kg/injection, schedule: Q01DX005 (ip), vehicle: Klucel (hydroxypropylcellulose) (HPC)): 103 % of control
- T/C (dose: 200.0 mg/kg/injection, schedule: Q01DX005 (ip), vehicle: Klucel (hydroxypropylcellulose) (HPC)): 95 % of control

Structure (SMILES): C[C@H]1C[C@](C)(CO)Oc2oc3ccccc3c(=O)c21
- T/C [1]: 108 % of control
- T/C [2]: 109 % of control
- T/C [3]: 111 % of control

Structure (SMILES): O=C(O)CBr
- T/C (dose: 25.0 mg/kg/injection, schedule: Q01DX005 (ip), vehicle: other): 110 % of control

Structure (SMILES): Cc1ccc(NC(=O)Oc2ccc([N+](=O)[O-])cc2)cc1S(=O)(=O)F
- T/C [1]: 113 % of control
- T/C [2]: 104 % of control
- T/C [3]: 95 % of control

Structure (SMILES): COc1ccc2c(C)cc(N/N=C(\c3ccccc3)c3ccccn3)nc2c1
- T/C (dose: 1.56 mg/kg/injection, schedule: Q01DX005 (ip), vehicle: saline with Tween-80): 107 % of control
- T/C (dose: 3.12 mg/kg/injection, schedule: Q01DX005 (ip), vehicle: saline with Tween-80): 102 % of control
- T/C (dose: 6.25 mg/kg/injection, schedule: Q01DX005 (ip), vehicle: saline with Tween-80): 98 % of control and 94 % of control
- T/C [6]: 89 % of control
- T/C [7]: 94 % of control

Structure (SMILES): C[C@@]12CCCC[C@@H]1Nc1ccccc12
- T/C [1]: 98 % of control
- T/C [2]: 100 % of control
- T/C [3]: 97 % of control

Structure (SMILES): Cc1cc(C(=C2C=CC(=Nc3ccc(S(=O)(=O)O)cc3)C=C2)c2ccc(Nc3ccc(S(=O)(=O)O)cc3)cc2)cc(S(=O)(=O)O)c1N
- T/C (dose: 50.0 mg/kg/injection, schedule: Q01DX005 (ip), vehicle: suspension in saline): 102 % of control
- T/C (dose: 100.0 mg/kg/injection, schedule: Q01DX005 (ip), vehicle: suspension in saline): 99 % of control
- T/C (dose: 200.0 mg/kg/injection, schedule: Q01DX005 (ip), vehicle: suspension in saline): 99 % of control

Structure (SMILES): CCn1c2ccccc2c2cc(N=Nc3[nH]c4ccccc4c3CN(C)C)ccc21
- T/C [11]: 107 % of control and 108 % of control (2×)
- T/C [12]: 105 % of control and 106 % of control
- T/C [13]: 100 % of control and 115 % of control and 118 % of control

Structure (SMILES): CCCCCCCCSc1nc2ccc(N=Cc3ccccc3O)cc2s1
- T/C (dose: 12.5 mg/kg/injection, schedule: Q01DX009 (ip), vehicle: Klucel (hydroxypropylcellulose) (HPC)): 109 % of control
- T/C (dose: 25.0 mg/kg/injection, schedule: Q01DX009 (ip), vehicle: Klucel (hydroxypropylcellulose) (HPC)): 94 % of control
- T/C (dose: 50.0 mg/kg/injection, schedule: Q01DX009 (ip), vehicle: Klucel (hydroxypropylcellulose) (HPC)): 90 % of control and 92 % of control
- T/C (dose: 200.0 mg/kg/injection, schedule: Q01DX009 (ip), vehicle: Klucel (hydroxypropylcellulose) (HPC)): 91 % of control

Structure (SMILES): CCNC(C)(C)C(SS)c1ccc(C(F)(F)F)cc1 (centres undefined)
- T/C (dose: 12.5 mg/kg/injection, schedule: Q04DX003 (ip), vehicle: saline with Tween-80): 100 % of control
- T/C (dose: 25.0 mg/kg/injection, schedule: Q04DX003 (ip), vehicle: saline with Tween-80): 110 % of control
- T/C [15]: 110 % of control
- T/C [16]: 100 % of control
- T/C (dose: 400.0 mg/kg/injection, schedule: Q04DX003 (ip), vehicle: saline with Tween-80): 109 % of control

Structure (SMILES): COC(=O)C(=O)C(C#N)c1ccc(C)cc1 (centres undefined)
- T/C [1]: 104 % of control
- T/C [2]: 104 % of control
- T/C [3]: 103 % of control

Structure (SMILES): CCNC(=O)C1CCN(Cc2c[nH]c3ccccc23)CC1
- T/C [15]: 113 % of control
- T/C [16]: 93 % of control
- T/C (dose: 200.0 mg/kg/injection, schedule: Q04DX003 (ip), vehicle: saline with Tween-80): 102 % of control

Structure (SMILES): NC1CC2CCCCC2CC1c1ccccc1 (centres undefined)
- T/C (dose: 100.0 mg/kg/injection, schedule: Q01DX001 (ip), vehicle: Klucel (hydroxypropylcellulose) (HPC)): 91 % of control
- T/C (dose: 200.0 mg/kg/injection, schedule: Q01DX001 (ip), vehicle: Klucel (hydroxypropylcellulose) (HPC)): 97 % of control
- T/C (dose: 400.0 mg/kg/injection, schedule: Q01DX001 (ip), vehicle: Klucel (hydroxypropylcellulose) (HPC)): 96 % of control

Structure (SMILES): CCCCCCCCCCCCCCCCOc1ccc(S(=O)(=O)N/N=c2/sc(-c3ccccc3Cl)nn2C)cc1C(=O)O
- T/C [17]: 100 % of control
- T/C (dose: 100.0 mg/kg/injection, schedule: Q01DX009 (ip), vehicle: saline): 100 % of control
- T/C (dose: 200.0 mg/kg/injection, schedule: Q01DX009 (ip), vehicle: saline): 96 % of control

Structure (SMILES): Cc1ccc(/C=N\NC(=O)NN)cc1
- T/C (dose: 25.0 mg/kg/injection, schedule: Q01DX005 (ip), vehicle: Klucel (hydroxypropylcellulose) (HPC)): 97 % of control
- T/C [14]: 102 % of control

Structure (SMILES): CN(C)c1ncnc2c1ncn2C1OC(CO)C(N)C1O (centres undefined)
- T/C [4]: 104 % of control
- T/C (dose: 12.5 mg/kg/injection, schedule: Q01DX009 (ip), vehicle: saline): 118 % of control
- T/C [5]: 113 % of control
- T/C (dose: 25.0 mg/kg/injection, schedule: Q01DX009 (ip), vehicle: saline): 119 % of control
- T/C [17]: 117 % of control
- T/C (dose: 75.0 mg/kg/injection, schedule: Q01DX009 (ip), vehicle: saline sonified): 163 % of control
- T/C (dose: 100.0 mg/kg/injection, schedule: Q04DX003 (ip), vehicle: saline sonified): 119 % of control
- T/C (dose: 200.0 mg/kg/injection, schedule: Q04DX003 (ip), vehicle: saline sonified): 109 % of control
- T/C (dose: 400.0 mg/kg/injection, schedule: Q04DX003 (ip), vehicle: saline sonified): 95 % of control

Structure (SMILES): COC1C=C(C)C(=O)O1 (centres undefined)
- T/C [8]: 106 % of control
- T/C [9]: 101 % of control
- T/C [10]: 101 % of control

Structure (SMILES): CCCOC1=NC2=NC(N3CCCC3)=NC3=C(Cl)C=C(Cl)C(=N1)N23
- T/C (dose: 25.0 mg/kg/injection, schedule: Q04DX002 (ip), vehicle: Klucel + Tween-80): 94 % of control
- T/C (dose: 50.0 mg/kg/injection, schedule: Q04DX002 (ip), vehicle: Klucel + Tween-80): 87 % of control
- T/C (dose: 100.0 mg/kg/injection, schedule: Q04DX002 (ip), vehicle: Klucel + Tween-80): 116 % of control and 86 % of control

Structure (SMILES): CNC(=S)NC(C)(C)C
- T/C (dose: 15.0 mg/kg/injection, schedule: Q01DX005 (ip), vehicle: Klucel (hydroxypropylcellulose) (HPC)): 97 % of control
- T/C (dose: 30.0 mg/kg/injection, schedule: Q01DX005 (ip), vehicle: Klucel (hydroxypropylcellulose) (HPC)): 97 % of control
- T/C (dose: 60.0 mg/kg/injection, schedule: Q01DX005 (ip), vehicle: Klucel (hydroxypropylcellulose) (HPC)): 103 % of control and 98 % of control
